Source: PubChem BioAssay (NCI)
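96-well plates; 48 h exposure; 5 concentrations. Endpoints by linear interpolation between flanking doses. Not reached: highest tested concentration assigned. The concentration for full growth arrest is given as TGI.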

Experiments:
Experiment in all cases: NCI anticancer screen, dose series, 48 h
786-0 renal = tested on: 786-0 renal
A498 renal = tested on: A498 renal
A549 NSCLC = tested on: A549 NSCLC
ACHN renal = tested on: ACHN renal
CAKI-1 renal = tested on: CAKI-1 renal
CCRF-CEM leukemia = tested on: CCRF-CEM leukemia
COLO 205 colon = tested on: COLO 205 colon
DLD-1 colon = tested on: DLD-1 colon
DMS 114 small cell lung = tested on: DMS 114 small cell lung
DMS 273 small cell lung = tested on: DMS 273 small cell lung
EKVX NSCLC = tested on: EKVX NSCLC
HCC-2998 colon = tested on: HCC-2998 colon
HCT-116 colon = tested on: HCT-116 colon
HCT-15 colon = tested on: HCT-15 colon
HL-60(TB) leukemia = tested on: HL-60(TB) leukemia
HOP-18 NSCLC = tested on: HOP-18 NSCLC
HOP-62 NSCLC = tested on: HOP-62 NSCLC
HOP-92 NSCLC = tested on: HOP-92 NSCLC
HT29 colon = tested on: HT29 colon
K-562 leukemia = tested on: K-562 leukemia
KM12 colon = tested on: KM12 colon
KM20L2 colon = tested on: KM20L2 colon
LOX IMVI melanoma = tested on: LOX IMVI melanoma
LXFL 529 NSCLC = tested on: LXFL 529 NSCLC
M14 melanoma = tested on: M14 melanoma
M19-MEL melanoma = tested on: M19-MEL melanoma
MALME-3M melanoma = tested on: MALME-3M melanoma
MOLT-4 leukemia = tested on: MOLT-4 leukemia
NCI-H226 lung = tested on: NCI-H226 lung
NCI-H23 lung = tested on: NCI-H23 lung
NCI-H460 lung = tested on: NCI-H460 lung
NCI-H522 lung = tested on: NCI-H522 lung
OVCAR-3 ovarian = tested on: OVCAR-3 ovarian
OVCAR-4 ovarian = tested on: OVCAR-4 ovarian
OVCAR-5 ovarian = tested on: OVCAR-5 ovarian
RPMI-8226 leukemia = tested on: RPMI-8226 leukemia
RXF 393 renal = tested on: RXF 393 renal
SF-268 CNS = tested on: SF-268 CNS
SF-295 CNS = tested on: SF-295 CNS
SF-539 CNS = tested on: SF-539 CNS
SK-MEL-2 melanoma = tested on: SK-MEL-2 melanoma
SK-MEL-28 melanoma = tested on: SK-MEL-28 melanoma
SK-MEL-5 melanoma = tested on: SK-MEL-5 melanoma
SK-OV-3 ovarian = tested on: SK-OV-3 ovarian
SN12C renal = tested on: SN12C renal
SNB-19 CNS = tested on: SNB-19 CNS
SNB-75 CNS = tested on: SNB-75 CNS
SNB-78 CNS = tested on: SNB-78 CNS
SR leukemia = tested on: SR leukemia
SW-620 colon = tested on: SW-620 colon
U251 CNS = tested on: U251 CNS
UACC-257 melanoma = tested on: UACC-257 melanoma
UACC-62 melanoma = tested on: UACC-62 melanoma
UO-31 renal = tested on: UO-31 renal
IGROV1 ovarian = tested on: IGROV1 ovarian
OVCAR-8 ovarian = tested on: OVCAR-8 ovarian
TK-10 renal = tested on: TK-10 renal
XF 498 CNS = tested on: XF 498 CNS

## Cc1cccc(C(C)C)c1NC(=O)CCl
786-0 renal
  TGI: > 100 µM
A498 renal
  TGI: > 100 µM
A549 NSCLC
  TGI: > 100 µM
ACHN renal
  TGI: > 100 µM
CAKI-1 renal
  TGI: 91.7 µM
CCRF-CEM leukemia
  TGI: > 100 µM
COLO 205 colon
  TGI: > 100 µM
DLD-1 colon
  TGI: > 100 µM
DMS 114 small cell lung
  TGI: 50 µM
DMS 273 small cell lung
  TGI: > 100 µM
EKVX NSCLC
  TGI: 53.2 µM
HCC-2998 colon
  TGI: > 100 µM
HCT-116 colon
  TGI: > 100 µM
HCT-15 colon
  TGI: > 100 µM
HL-60(TB) leukemia
  TGI: > 100 µM
HOP-18 NSCLC
  TGI: > 100 µM
HOP-62 NSCLC
  TGI: 98.8 µM
HOP-92 NSCLC
  TGI: > 100 µM
HT29 colon
  TGI: > 100 µM
K-562 leukemia
  TGI: > 100 µM
KM12 colon
  TGI: > 100 µM
KM20L2 colon
  TGI: > 100 µM
LOX IMVI melanoma
  TGI: > 100 µM
LXFL 529 NSCLC
  TGI: > 100 µM
M14 melanoma
  TGI: > 100 µM
M19-MEL melanoma
  TGI: > 100 µM
MALME-3M melanoma
  TGI: > 100 µM
MOLT-4 leukemia
  TGI: > 100 µM
NCI-H226 lung
  TGI: > 100 µM
NCI-H23 lung
  TGI: 80 µM
NCI-H460 lung
  TGI: > 100 µM
NCI-H522 lung
  TGI: 30 µM
OVCAR-3 ovarian
  TGI: 59.9 µM
OVCAR-4 ovarian
  TGI: 76.6 µM
OVCAR-5 ovarian
  TGI: > 100 µM
RPMI-8226 leukemia
  TGI: > 100 µM
RXF 393 renal
  TGI: 75.5 µM
SF-268 CNS
  TGI: > 100 µM
SF-295 CNS
  TGI: > 100 µM
SF-539 CNS
  TGI: > 100 µM
SK-MEL-2 melanoma
  TGI: > 100 µM
SK-MEL-28 melanoma
  TGI: > 100 µM
SK-MEL-5 melanoma
  TGI: > 100 µM
SK-OV-3 ovarian
  TGI: > 100 µM
SN12C renal
  TGI: > 100 µM
SNB-19 CNS
  TGI: > 100 µM
SNB-75 CNS
  TGI: > 100 µM
SNB-78 CNS
  TGI: > 100 µM
SR leukemia
  TGI: > 100 µM
SW-620 colon
  TGI: > 100 µM
U251 CNS
  TGI: > 100 µM
UACC-257 melanoma
  TGI: > 100 µM
UACC-62 melanoma
  TGI: 63.2 µM
UO-31 renal
  TGI: > 100 µM

## O=S1c2ccccc2NC(c2ccc3ccccc3c2)CC1c1ccccc1 (configuration not stated)
786-0 renal
  TGI: 31.1 µM
A549 NSCLC
  TGI: > 100 µM
ACHN renal
  TGI: 52.2 µM
CAKI-1 renal
  TGI: 79 µM
CCRF-CEM leukemia
  TGI: 38 µM
COLO 205 colon
  TGI: 74.4 µM
DLD-1 colon
  TGI: 70.1 µM
DMS 273 small cell lung
  TGI: 91.6 µM
EKVX NSCLC
  TGI: 63.9 µM
HCC-2998 colon
  TGI: 36 µM
HCT-15 colon
  TGI: 54 µM
HL-60(TB) leukemia
  TGI: 55.3 µM
HOP-18 NSCLC
  TGI: > 100 µM
HOP-62 NSCLC
  TGI: > 100 µM
HT29 colon
  TGI: 49.6 µM
IGROV1 ovarian
  TGI: 40.5 µM
K-562 leukemia
  TGI: 37.5 µM
KM12 colon
  TGI: 41.7 µM
KM20L2 colon
  TGI: 48.9 µM
LOX IMVI melanoma
  TGI: 33.7 µM
LXFL 529 NSCLC
  TGI: 30.5 µM
M14 melanoma
  TGI: > 100 µM
M19-MEL melanoma
  TGI: 43.3 µM
MALME-3M melanoma
  TGI: > 100 µM
MOLT-4 leukemia
  TGI: 70.3 µM
NCI-H226 lung
  TGI: 48.9 µM
NCI-H23 lung
  TGI: 40.1 µM
NCI-H460 lung
  TGI: 47.1 µM
NCI-H522 lung
  TGI: 42.4 µM
OVCAR-3 ovarian
  TGI: 35.1 µM
OVCAR-4 ovarian
  TGI: 53.9 µM
OVCAR-5 ovarian
  TGI: > 100 µM
OVCAR-8 ovarian
  TGI: 57 µM
RPMI-8226 leukemia
  TGI: 60.8 µM
RXF 393 renal
  TGI: 30.5 µM
SF-268 CNS
  TGI: > 100 µM
SF-295 CNS
  TGI: 55 µM
SF-539 CNS
  TGI: 41.1 µM
SK-MEL-2 melanoma
  TGI: > 100 µM
SK-MEL-28 melanoma
  TGI: > 100 µM
SK-MEL-5 melanoma
  TGI: 37.9 µM
SK-OV-3 ovarian
  TGI: > 100 µM
SN12C renal
  TGI: > 100 µM
SNB-19 CNS
  TGI: > 100 µM
SNB-75 CNS
  TGI: 86.6 µM
SW-620 colon
  TGI: 42.7 µM
TK-10 renal
  TGI: > 100 µM
UACC-257 melanoma
  TGI: > 100 µM
UACC-62 melanoma
  TGI: > 100 µM
UO-31 renal
  TGI: 47.9 µM
XF 498 CNS
  TGI: 52.8 µM

## O=C(Oc1ccc2c(-c3ccccc3)c(C(=O)Nc3ccc(Cl)cc3)c(=O)oc2c1)c1ccccc1
786-0 renal
  TGI: > 100 µM
A549 NSCLC
  TGI: > 100 µM
ACHN renal
  TGI: > 100 µM
CCRF-CEM leukemia
  TGI: > 100 µM
COLO 205 colon
  TGI: > 100 µM
DLD-1 colon
  TGI: > 100 µM
DMS 114 small cell lung
  TGI: > 100 µM
DMS 273 small cell lung
  TGI: > 100 µM
EKVX NSCLC
  TGI: > 100 µM
HCT-116 colon
  TGI: > 100 µM
HCT-15 colon
  TGI: > 100 µM
HL-60(TB) leukemia
  TGI: > 100 µM
HOP-18 NSCLC
  TGI: > 100 µM
HOP-62 NSCLC
  TGI: > 100 µM
HT29 colon
  TGI: > 100 µM
IGROV1 ovarian
  TGI: > 100 µM
K-562 leukemia
  TGI: > 100 µM
KM12 colon
  TGI: > 100 µM
KM20L2 colon
  TGI: > 100 µM
LOX IMVI melanoma
  TGI: > 100 µM
M14 melanoma
  TGI: > 100 µM
M19-MEL melanoma
  TGI: > 100 µM
MALME-3M melanoma
  TGI: > 100 µM
MOLT-4 leukemia
  TGI: > 100 µM
NCI-H226 lung
  TGI: > 100 µM
NCI-H23 lung
  TGI: > 100 µM
NCI-H460 lung
  TGI: > 100 µM
NCI-H522 lung
  TGI: > 100 µM
OVCAR-3 ovarian
  TGI: > 100 µM
OVCAR-8 ovarian
  TGI: > 100 µM
RPMI-8226 leukemia
  TGI: > 100 µM
RXF 393 renal
  TGI: > 100 µM
SF-295 CNS
  TGI: > 100 µM
SF-539 CNS
  TGI: > 100 µM
SK-MEL-2 melanoma
  TGI: > 100 µM
SK-MEL-28 melanoma
  TGI: > 100 µM
SK-MEL-5 melanoma
  TGI: > 100 µM
SK-OV-3 ovarian
  TGI: > 100 µM
SN12C renal
  TGI: > 100 µM
SNB-19 CNS
  TGI: > 100 µM
SNB-75 CNS
  TGI: > 100 µM
SW-620 colon
  TGI: > 100 µM
TK-10 renal
  TGI: > 100 µM
U251 CNS
  TGI: > 100 µM
UACC-257 melanoma
  TGI: > 100 µM
UACC-62 melanoma
  TGI: > 100 µM
UO-31 renal
  TGI: > 100 µM
XF 498 CNS
  TGI: > 100 µM

## CN(C)C(=S)/N=c1\ss/c(=N\C(=S)N(C)C)n1Cc1ccco1
786-0 renal
  TGI: > 100 µM
A498 renal
  TGI: > 100 µM
A549 NSCLC
  TGI: > 100 µM
ACHN renal
  TGI: > 100 µM
CAKI-1 renal
  TGI: > 100 µM
CCRF-CEM leukemia
  TGI: > 100 µM
COLO 205 colon
  TGI: > 100 µM
DLD-1 colon
  TGI: > 100 µM
DMS 114 small cell lung
  TGI: > 100 µM
DMS 273 small cell lung
  TGI: > 100 µM
HCC-2998 colon
  TGI: > 100 µM
HCT-116 colon
  TGI: > 100 µM
HCT-15 colon
  TGI: > 100 µM
HL-60(TB) leukemia
  TGI: > 100 µM
HOP-18 NSCLC
  TGI: > 100 µM
HOP-62 NSCLC
  TGI: > 100 µM
IGROV1 ovarian
  TGI: > 100 µM
K-562 leukemia
  TGI: > 100 µM
KM12 colon
  TGI: > 100 µM
KM20L2 colon
  TGI: > 100 µM
LXFL 529 NSCLC
  TGI: > 100 µM
M14 melanoma
  TGI: > 100 µM
M19-MEL melanoma
  TGI: > 100 µM
MALME-3M melanoma
  TGI: > 100 µM
MOLT-4 leukemia
  TGI: > 100 µM
NCI-H226 lung
  TGI: > 100 µM
NCI-H460 lung
  TGI: > 100 µM
NCI-H522 lung
  TGI: > 100 µM
OVCAR-4 ovarian
  TGI: > 100 µM
OVCAR-8 ovarian
  TGI: > 100 µM
RPMI-8226 leukemia
  TGI: > 100 µM
RXF 393 renal
  TGI: > 100 µM
SF-268 CNS
  TGI: > 100 µM
SF-539 CNS
  TGI: > 100 µM
SK-MEL-2 melanoma
  TGI: > 100 µM
SK-MEL-28 melanoma
  TGI: > 100 µM
SK-MEL-5 melanoma
  TGI: > 100 µM
SK-OV-3 ovarian
  TGI: > 100 µM
SN12C renal
  TGI: > 100 µM
SNB-19 CNS
  TGI: > 100 µM
SNB-75 CNS
  TGI: > 100 µM
SNB-78 CNS
  TGI: > 100 µM
SR leukemia
  TGI: > 100 µM
SW-620 colon
  TGI: > 100 µM
TK-10 renal
  TGI: > 100 µM
U251 CNS
  TGI: > 100 µM
UACC-257 melanoma
  TGI: > 100 µM
UACC-62 melanoma
  TGI: > 100 µM
UO-31 renal
  TGI: > 100 µM
